Article PMC8740163, “Voltage-Gated Sodium Channel Modulation by a New Spider Toxin Ssp1a Isolated From an Australian Theraphosid” (Frontiers in Pharmacology, 2021)

Tests used:
hNaV1.7 = hNaV1.7 (Homo sapiens, UniProt Q15858); assay type: cell-based
[1] = system: hNaV1.1, 1.2, 1.6, 1.7, 1.3; settings: ref Gonçalves et al., 2018, cited from earlier work

Chain of hNaV1.7 (Q07699 19-218): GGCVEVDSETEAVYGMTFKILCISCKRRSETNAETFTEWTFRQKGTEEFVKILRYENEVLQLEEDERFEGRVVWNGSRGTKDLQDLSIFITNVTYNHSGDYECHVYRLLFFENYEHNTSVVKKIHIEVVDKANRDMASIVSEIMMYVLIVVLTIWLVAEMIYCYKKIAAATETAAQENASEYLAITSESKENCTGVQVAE
Chain of hNaV1.7 (Q15858 whole entry): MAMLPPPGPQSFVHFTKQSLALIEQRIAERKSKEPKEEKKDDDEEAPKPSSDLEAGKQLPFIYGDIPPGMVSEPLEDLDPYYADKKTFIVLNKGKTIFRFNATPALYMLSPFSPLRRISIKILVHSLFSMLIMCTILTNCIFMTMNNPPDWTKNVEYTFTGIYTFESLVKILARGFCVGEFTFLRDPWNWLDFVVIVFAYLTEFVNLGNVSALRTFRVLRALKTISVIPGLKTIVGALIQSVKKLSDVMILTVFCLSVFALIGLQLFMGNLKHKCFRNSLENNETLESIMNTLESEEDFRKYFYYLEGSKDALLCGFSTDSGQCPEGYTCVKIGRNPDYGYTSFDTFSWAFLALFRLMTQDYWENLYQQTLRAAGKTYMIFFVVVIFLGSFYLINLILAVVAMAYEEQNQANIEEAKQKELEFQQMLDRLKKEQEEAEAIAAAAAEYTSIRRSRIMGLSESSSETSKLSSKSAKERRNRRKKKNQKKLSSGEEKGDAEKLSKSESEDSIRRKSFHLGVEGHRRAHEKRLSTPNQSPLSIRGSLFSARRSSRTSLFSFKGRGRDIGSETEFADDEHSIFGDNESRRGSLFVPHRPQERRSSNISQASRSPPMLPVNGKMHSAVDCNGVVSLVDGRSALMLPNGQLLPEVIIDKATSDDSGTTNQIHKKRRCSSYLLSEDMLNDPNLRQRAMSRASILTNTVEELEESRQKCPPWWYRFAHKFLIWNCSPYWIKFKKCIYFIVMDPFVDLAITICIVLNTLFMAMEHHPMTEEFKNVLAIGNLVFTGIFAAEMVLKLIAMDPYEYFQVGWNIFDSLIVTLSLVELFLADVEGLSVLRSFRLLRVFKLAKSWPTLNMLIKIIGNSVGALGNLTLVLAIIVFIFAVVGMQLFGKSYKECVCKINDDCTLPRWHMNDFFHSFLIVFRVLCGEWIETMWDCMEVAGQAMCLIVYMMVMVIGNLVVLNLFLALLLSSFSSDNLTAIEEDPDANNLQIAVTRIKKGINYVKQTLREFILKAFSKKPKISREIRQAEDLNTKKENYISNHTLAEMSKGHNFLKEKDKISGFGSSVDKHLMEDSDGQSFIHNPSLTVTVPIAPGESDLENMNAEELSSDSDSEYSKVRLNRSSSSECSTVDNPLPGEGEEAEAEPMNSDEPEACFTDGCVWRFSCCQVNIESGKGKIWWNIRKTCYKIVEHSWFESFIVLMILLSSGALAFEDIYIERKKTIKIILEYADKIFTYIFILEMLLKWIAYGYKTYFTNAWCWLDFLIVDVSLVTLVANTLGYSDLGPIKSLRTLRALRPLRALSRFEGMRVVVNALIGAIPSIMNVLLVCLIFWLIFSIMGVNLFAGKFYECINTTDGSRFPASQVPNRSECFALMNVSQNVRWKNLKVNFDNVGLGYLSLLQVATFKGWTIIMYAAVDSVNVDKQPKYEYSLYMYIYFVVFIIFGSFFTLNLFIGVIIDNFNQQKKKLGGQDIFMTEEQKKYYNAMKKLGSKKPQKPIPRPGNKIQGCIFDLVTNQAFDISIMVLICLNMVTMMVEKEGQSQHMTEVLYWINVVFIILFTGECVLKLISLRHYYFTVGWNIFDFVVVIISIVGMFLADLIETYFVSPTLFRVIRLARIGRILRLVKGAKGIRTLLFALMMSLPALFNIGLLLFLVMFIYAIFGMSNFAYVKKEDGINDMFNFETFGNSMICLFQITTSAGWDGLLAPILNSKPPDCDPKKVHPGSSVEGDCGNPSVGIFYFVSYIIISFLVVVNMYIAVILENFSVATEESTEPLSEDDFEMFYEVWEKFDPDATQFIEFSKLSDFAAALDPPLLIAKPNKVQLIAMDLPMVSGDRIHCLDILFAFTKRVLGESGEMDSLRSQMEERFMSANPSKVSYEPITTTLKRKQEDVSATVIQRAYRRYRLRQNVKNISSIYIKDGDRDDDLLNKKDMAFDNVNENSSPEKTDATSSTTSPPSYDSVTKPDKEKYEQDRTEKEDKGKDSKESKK

For NC1=N[C@H](O)[C@H]2[C@H]3O[C@]4(O)O[C@@H]([C@@H](O)[C@@]2(N1)[C@@H]4O)[C@]3(O)CO [Tetrodotoxin (TTX), Tetrodotoxin], the “inhibition of veratridine + OD1 activated responses” value (hNaV1.7) was “fully inhibited”.

For “HwTx-IV: NaSpTx1 family spider toxin, 40% sequence identity with Ssp1a”, the IC50 ([1]; range over hNaV1.1, 1.2, 1.6, 1.7, 1.3, read-out: IC50 at five hNaV subtypes) is listed as 41 to 190 nM and the “rank order of potency” value [1] is listed as “hNaV1.1 > 1.2 > 1.6 > 1.7 > 1.3”.
